Results as given in PMC12311387, “Proactive Therapeutic Drug MONiToring to Guide Suppressive Antibiotic Therapy with DALBAvaNcin ( > 12 weeks) in Osteoarticular Infections (MONTALBANO)” (Journal of Bone and Joint Infection, 2025).

Assays:
[1] = 12 PJI patients, 1500 mg day 1, 8, 14 then 1000 mg biweekly from day 28; all Cmin values well above target; ref Söderquist et al., 2024; cited from earlier work
Method: Currently, there is considerable heterogeneity in the use of SAT with dalbavancin for OAIs in both the initial and the maintenance doses. For the latter, some proposed regimens range from 500 mg weekly to 500 mg biweekly to 1000 mg biweekly (Martín et al., 2019; Morata et al., 2019; Wunsch et al., 2019). However, none of these studies employed TDM to assess the pharmacological efficacy of such regimens. Söderquist et al. (2024) recently shared their experience with 12 patients treated with long-term ( >12 weeks) dalbavancin for PJI, according to the Swedish national guidelines and introducing ...

Isolated pathogens = assay: MIC of pathogens isolated from the patients; assay type: cell-based; conditions: calculated for one patient only
Description: Table 1 Baseline characteristics of the study population.

[2] = Therapeutic drug monitoring of plasma dalbavancin Cmin (LC-MS/MS) from the fourth dose onward; assay type: in vivo, human
Method: Included patients received the first three dalbavancin doses on day 1 (T0), day 8 (T1), and day 43 (T2) (Senneville et al., 2023). Subsequent injection timings were personalized and determined using dalbavancin Cmin measured immediately before the dalbavancin administration and maximum plasma concentrations ( Cmax ) measured 30 min after the end of the injection (Fig. 1). Starting from the third dose, Cmin and Cmax values were used in log-linear regression models by plotting logarithmic dalbavancin concentrations with time (Microsoft Excel Software, Microsoft Company, USA) (Cattaneo et al., 2023) to plan the subsequent administration aiming to maintain Cmin levels at ≥8 mg L^−1, as recommended in the recent literature (Cojutti et al., 2021).
Plasma dalbavancin blood samples were assessed using ethylene–diamine–tetraacetic acid (EDTA)-containing Vacutainers®. All samples were centrifuged at 3000 × g and plasma was separated and stored at -20 °C. Dalbavancin quantification was performed through a validated liquid chromatography tandem mass spectrometry method developed and validated according to the EMA guidelines. The analytical process consisted of a fast protein precipitation protocol of 50 µ L of plasma with 400 µ L of precipitation solution (methanol / acetonitrile, 3 / 1), centrifugation at 10 000 × g , 1 : 3 dilutions with water, and analysis. Chromatographic separation was achieved using a gradient (acetonitrile and water with formic acid 0.1 %) on a reversed-phase analytical column (Acquity UPLC BEH C18 1.70 µ m 2.1 × 50 mm; Waters, Milan, Italy). For quantification, analysis was performed in ESI-positive mode by monitoring the transition m/z = 909.45 > 340.2 for dalbavancin. The method was linear from 1 to 500 mg L^−1, with intraday and interday assay imprecision and inaccuracy consistently < 10 % during each analytical run.
The primary outcome was to evaluate the pharmacological efficacy of our proactive TDM-based administration method in maintaining the dalbavancin Cmin level at ≥8 mg L^−1 or ≥4 mg L^−1 taken from the fourth dose onward.
Pharmacological efficacy was defined as the number of instances where Cmin≥8 mg L^−1(or ≥4 mg L^−1) was achieved from the fourth dose onward. […] A tolerance window of up to ±4 d from the calculated injection date was allowed to adapt the model to real-life conditions and improve adherence to the treatment regimen.

[3] = cited from earlier work
[4] = tested on: osteoarticular infections (OAIs); assay: Clinical effectiveness from chart review in patients with osteoarticular infections; assay type: in vivo, human
Method: We established effectiveness with an assessment of clinical and microbiological outcomes from chart review detected up to 31 October 2024. If the patient was still on dalbavancin treatment, the clinical outcome was assessed as “ongoing treatment”. Otherwise, the assessment could result in the following: (i) completed therapy with clinical success (absence of failure or relapse at the follow-up); (ii) failure (clinical or microbiological failure with uncontrolled infection during dalbavancin treatment; need for medical interventions for the treated episode in addition to the initial program); (iii) relapse (exacerbation of the clinical condition within 6 months after the end of treatment); (iv) discontinuation of therapy due to AEs; (v) discontinuation of therapy due to new hospitalization for other clinical events; (vi) missing data (insufficient details to assess the outcome; lost at follow-up); (vii) death for infection-related conditions; or (viii) death for non-infection-related conditions.

[5] = Safety: monitoring of adverse events, renal toxicity and platelet count; assay type: in vivo, human; conditions: patients n=33, treatment >12 weeks
Method: Safety was assessed by monitoring AEs. We defined renal toxicity as a reduction in the estimated glomerular filtration rate (eGFR) to less than 30 mL min^−1/1.73 m^2, accompanied by a decrease of at least 20 % from baseline. A significant reduction in platelet count was considered when the count fell below 100 000 per mm^−3 with a decrease of at least 25 % from baseline.

[6] = only determinations within ±4 d of the date suggested by the model, plasma
[7] = plasma trough determinations from fourth dose onward, 33 OAI patients, TDM-guided dosing, total concentration

CN[C@H]1C(=O)N[C@@H]2Cc3ccc(cc3)Oc3cc4cc(c3O[C@@H]3O[C@H](C(=O)O)[C@@H](O)[C@H](O)[C@H]3NC(=O)CCCCCCCCC(C)C)Oc3ccc(cc3Cl)[C@@H](O)[C@@H]3NC(=O)[C@H](NC(=O)[C@@H]4NC(=O)[C@@H](NC2=O)c2cc(cc(O)c2Cl)Oc2cc1ccc2O)c1ccc(O)c(c1)-c1c(O[C@H]2O[C@H](CO)[C@@H](O)[C@H](O)[C@@H]2O)cc(O)cc1[C@@H](C(=O)NCCCN(C)C)NC3=O [dalbavancin]
Cmin [1]: > 8 mg/L | MIC for dalbavancin (Isolated pathogens): < 0.06 µg/mL | Cmin ≥4 mg L^−1, n (%), Cmin performed at correct timing (n=95) [2, 6]: 93 (97.9) n (%) | Cmin ≥8 mg L^−1, n (%), Cmin performed at correct timing (n=95) [2, 6]: 81 (85.3) n (%) | Cmin ≥4 mg L^−1, n (%), Total Cmin (n=118) [2, 7]: 114 (96.6) n (%) | Cmin ≥8 mg L^−1, n (%), Total Cmin (n=118) [2, 7]: 93 (78.8) n (%) | penetration proportion into bone tissue ([3]; ref Dunne et al., 2015): 13.1% | half-life ([3]; ref Rappo et al., 2019a): 14.4 days | total binding protein ([3]; ref Rappo et al., 2019a): 93% | Completed therapy with clinical success, n (%) ([4]; patients n=33): 11 (33.3) n (%) | Failure, n (%) ([4]; patients n=33): 1 (3) n (%) | Ongoing, n (%) ([4]; patients n=33, still on treatment with controlled infection at end of study): 18 (54.5) n (%) | Relapse, n (%) ([4]; patients n=33, within 6 months after end of treatment): 3 (9.1) n (%) | AEs, n (%) [5]: 0 n (%) | Adverse effects on renal function or platelet count [5]: did not observe any adverse effects on renal function or platelet count
